Columns and labels:
[1] = target: benzodiazepine binding site; assay: Inhibition of [3H]-flunitrazepam by 2′ flavonoid derivatives (Example 7)
[2] = system: benzodiazepine site on GABAA receptor; assay: GABA shift experiment, [3H]-Ro15-1788 competition with/without 10 μM GABA; type: binding, rat
[3] = target: BZD-S; assay: Radio-receptor binding assay, [3H]flunitrazepam, forebrain crude synaptosomal fraction (Example 3); set-up: species or system Sprague-Dawley rats; details: 1 nM [3H]flunitrazepam, rat forebrain; read-out: Inhibition of 3H-Flunitrazepam Ki
[4] = system: mice; assay: Hole-board test; type: in vivo, Male ICR mice; set-up: Time spent head-dipping: unit not given here
[5] = system: mice; assay: Elevated plus-maze test; type: in vivo, Male ICR mice
[6] = system: mice; assay: Horizontal wire test; type: in vivo, Male ICR mice
[7] = target: benzodiazepine site (BZD-S) of the GABAA receptor
[8] = system: benzodiazepine site (BZD-S) of the GABAA receptor; assay: Radioligand receptor binding, displacement of [3H]-flunitrazepam (Example 1)
[9] = system: benzodiazepine site; details: 10^-4 M GABA, rat cerebral cortex membranes; cited from earlier work
[10] = system: benzodiazepine site; details: 10^-5 M muscimol, rat cerebellar membranes; cited from earlier work
[11] = 1 mg/kg oral, time cell empty (1 hour), 5-min test
[12] = 5 mg/kg oral, time cell empty (1 hour), 5-min test
[13] = 1 mg/kg oral, time cell empty, 5-min test
[14] = 5 mg/kg oral, time cell empty, 5-min test

COc1ccc2oc(-c3ccccc3N)cc(=O)c2c1 [2′-amino, 6-methoxyflavone]
IC50 [1]: 2000 nM

COc1c(O)c(OC)c2oc(-c3ccccc3O)cc(=O)c2c1O [Compound 1, 5,7,2′-trihydroxy-6,8-dimethoxyflavone]
GABA ratio ([2]; IC50 without GABA / IC50 with 10 μM GABA, 1 nM [3H]-Ro15-1788): 1.20 | Ki [3]: 1.1 nM | Number of head dips ([4]; 1 mg/kg oral, 20 min): 13.56 ± 1.81 | Number of rearings ([4]; 1 mg/kg oral, 20 min): 24.19 ± 3.53 | Time spent head-dipping ([4]; 1 mg/kg oral, 20 min): 15.38 ± 1.59 | Number of head dips ([4]; 1 mg/kg oral, 60 min): 15.75 ± 2.53 | Number of rearings ([4]; 1 mg/kg oral, 60 min): 23.94 ± 2.34 | Time spent head-dipping ([4]; 1 mg/kg oral, 60 min): 16.75 ± 3.78 | Number of head dips ([4]; 2 mg/kg oral, 20 min): 13.13 ± 1.96 | Number of rearings ([4]; 2 mg/kg oral, 20 min): 22.06 ± 3.17 | Time spent head-dipping ([4]; 2 mg/kg oral, 20 min): 14.56 ± 2.04 | Number of head dips ([4]; 2 mg/kg oral, 60 min): 14.50 ± 2.73 | Number of rearings ([4]; 2 mg/kg oral, 60 min): 22.13 ± 2.46 | Time spent head-dipping ([4]; 2 mg/kg oral, 60 min): 15.13 ± 2.20 | number of head-dips, time spent head-dipping and number of rearings ([4]; 4 mg/kg acute, twenty minutes after dosage): significant increase | Number of head dips ([4]; 4 mg/kg oral, 20 min): 20.25 ± 1.42 | Number of rearings ([4]; 4 mg/kg oral, 20 min): 29.54 ± 2.09 | Time spent head-dipping ([4]; 4 mg/kg oral, 20 min): 23.35 ± 1.28 | Number of head dips ([4]; 4 mg/kg oral, 60 min): 16.95 ± 1.33 | Number of rearings ([4]; 4 mg/kg oral, 60 min): 27.56 ± 2.79 | Time spent head-dipping ([4]; 4 mg/kg oral, 60 min): 17.56 ± 1.20 | Number of head dips ([4]; 8 mg/kg oral, 20 min): 18.46 ± 3.65 | Number of rearings ([4]; 8 mg/kg oral, 20 min): 25.26 ± 2.74 | Time spent head-dipping ([4]; 8 mg/kg oral, 20 min): 19.55 ± 4.23 | Number of head dips ([4]; 8 mg/kg oral, 60 min): 15.72 ± 1.86 | Number of rearings ([4]; 8 mg/kg oral, 60 min): 23.75 ± 3.18 | Time spent head-dipping ([4]; 8 mg/kg oral, 60 min): 15.06 ± 1.98 | sedative effects (decrease in head-dips, time head-dipping, rearings) ([4]; mouse, in vivo): lack of sedative effects | % of entries into open arms ([5]; 1 mg/kg oral, 20 min): 18.39 ± 3.14% | % of time spent in open arms ([5]; 1 mg/kg oral, 20 min): 14.28 ± 2.36% | % of entries into open arms ([5]; 1 mg/kg oral, 60 min): 18.51 ± 3.34% | % of time spent in open arms ([5]; 1 mg/kg oral, 60 min): 15.80 ± 3.29% | % of entries into open arms ([5]; 2 mg/kg oral, 20 min): 18.30 ± 2.78% | % of time spent in open arms ([5]; 2 mg/kg oral, 20 min): 15.74 ± 3.00% | % of entries into open arms ([5]; 2 mg/kg oral, 60 min): 16.91 ± 2.49% | % of time spent in open arms ([5]; 2 mg/kg oral, 60 min): 16.84 ± 1.99% | anxiolysis compared to either dosage of diazepam ([5]; 4.0 mg/kg): more anxiolysis | % of entries into open arms ([5]; 4 mg/kg oral, 20 min): 32.28 ± 2.91 % | % of time spent in open arms ([5]; 4 mg/kg oral, 20 min): 33.55 ± 2.09 % | % of entries into open arms ([5]; 4 mg/kg oral, 60 min): 19.90 ± 1.63% | % of time spent in open arms ([5]; 4 mg/kg oral, 60 min): 15.69 ± 2.09% | % of entries into open arms ([5]; 8 mg/kg oral, 20 min): 28.90 ± 2.23 % | % of time spent in open arms ([5]; 8 mg/kg oral, 20 min): 25.62 ± 1.73 % | % of entries into open arms ([5]; 8 mg/kg oral, 60 min): 18.67 ± 2.24% | % of time spent in open arms ([5]; 8 mg/kg oral, 60 min): 16.76 ± 2.19% | time spent in open arms and entries made into open arms vs control ([5]; 4.0 and 8.0 mg/kg, twenty minutes after dosage): significant increase | ability to grasp the wire ([6]; K36 dosage regimen 1.0-8.0 mg/kg): remained unchanged | Ki [7]: 1.1 nM | fold difference in binding affinity ([8]; Compound 1 vs Compound 6 (K1)): 260 fold | IC50 ([8]; read-out: Inhibition of 3H-Flunitrazepam IC50, 1 nM [3H]-flunitrazepam, rat whole brain synaptosomal membrane): 1.5 nM

CN1C(=O)CN=C(c2ccccc2)c2cc(Cl)ccc21 [Diazepam, reference compound]
GABA ratio (IC50 ratio without GABA/with GABA), column C ([2]; 10^-5 M GABA, rat cerebral cortex membranes): 2.0 | Ki [3]: 9.5 nM | Number of head dips [4, 11]: 19.12 ± 2.92 | Number of rearings [4, 11]: 25.13 ± 2.85 | Time spent head-dipping [4, 11]: 22.75 ± 2.59 | Number of head dips [4, 12]: 17.25 ± 1.89 | Number of rearings [4, 12]: 32.16 ± 3.15 | Time spent head-dipping [4, 12]: 19.50 ± 2.33 | sedative effects (decrease in head-dips, time head-dipping, rearings) ([4]; at the dosage regimen): lack of sedative effects | % of entries into open arms [5, 13]: 26.48 ± 2.83 % | % of time spent in open arms [5, 13]: 28.71 ± 2.27 % | % of entries into open arms [5, 14]: 29.85 ± 1.29 % | % of time spent in open arms [5, 14]: 32.24 ± 1.56 % | time spent in open arms and entries made into open arms vs control ([5]; 1.0 and 5.0 mg/kg): dose dependent increase | ability to grasp the wire compared to control ([6]; 5.0 mg/kg): significant impairment | GABA ratio (IC50 ratio without GABA/with GABA), column A [9]: 2.9 | GABA ratio (IC50 ratio without GABA/with GABA), column B [10]: 2.3

Source: patent US6740677B2, “Methods of treating benzodiazepine site (BZD-S) associated syndromes using 2′ hydroxyflavonoids” (priority 2002, dated 2004)
